This is an account of results in patent publication US20200138827A1, “SMALL MOLECULE MODULATORS OF HUMAN STING” (Curadev Pharma Limited, priority 2017, published 2020).

T1 sequence (Q86WV6 whole entry H232R): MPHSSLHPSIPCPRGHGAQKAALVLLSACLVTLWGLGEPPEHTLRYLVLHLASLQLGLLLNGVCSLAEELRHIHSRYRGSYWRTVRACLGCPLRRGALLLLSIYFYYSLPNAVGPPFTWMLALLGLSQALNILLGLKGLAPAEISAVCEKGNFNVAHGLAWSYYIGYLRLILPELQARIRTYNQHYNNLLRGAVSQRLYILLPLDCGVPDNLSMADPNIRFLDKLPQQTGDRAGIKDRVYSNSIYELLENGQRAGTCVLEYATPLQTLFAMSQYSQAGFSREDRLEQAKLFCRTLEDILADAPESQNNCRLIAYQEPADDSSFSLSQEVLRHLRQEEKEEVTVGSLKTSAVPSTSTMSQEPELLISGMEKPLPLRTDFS

The test concerns the target T1, WT/R232 STING protein (Homo sapiens, UniProt Q86WV6, H232R).
T1 construct: host or cells: HEK293T
As to the kind of experiment: Luciferase reporter assay in HEK293T-hSTING-Luciferase cells, WT/R232. Format: cell-based. Conditions: 20 hr stimulation, read-out: R232 Activity (EC50 range). The source says:
• a) Stable STING expressing cells—Stable HEK293T STING-expressing cell lines were generated using plasmids purchased from Invivogen, Calif., USA, that contain STING cDNA cloned into the pUNO-1 vector under hEF1-HTLV promoter and containing the Blasticidin selection cassette. The plasmids hSTING(R232), hSTING(H232), hSTING(HAQ) were directly procured from Invivogen while hSTING (AQ) and hSTING (Q) were derived from hSTING(HAQ) and hSTING (R232) plasmids respectively by using a PCR based site directed mutagenesis method. These vectors were individually transfected into HEK293T cells using Lipofectamine (Invitrogen) and transfected cells were selected under Blasticidin selection. These transfected cells were further subjected to clonal selection using the limiting dilution method to obtain clonally pure populations of HEK cells transfected with each of the above mentioned human STING variants. Only those clones were selected in which ligand independent activation of STING was minimal. • b) Stable Luciferase reporter gene expressing cells—Stable HEK293T Luciferase reporter gene expressing cell lines were generated using pCDNA4 plasmids under an IRF-inducible promoter. This promoter is comprised of five tandem interferon-stimulated response elements (ISRE) fused to an ISG54 minimal promoter. This vector was transfected into HEK293T cells using Lipofectamine (Invitrogen) and transfected cells were selected under Zeocin selection. These transfected cells were further subjected to clonal selection using the limiting dilution method to obtain clonally pure populations of HEK cells transfected the Luciferase reporter construct. Only those clones were selected in which ligand independent induction of luciferase was minimal.
5×10^5 clonally selected HEK293T-hSTING-Luciferase cells were seeded in 384-well plates in growth medium and stimulated with novel compounds. After 20 hr of stimulation supernatant were removed and secretary reporter gene activity were measured using the Quanti-Luc detection system (Invivogen) on a Spectramax i3X luminometer.
All compounds were first tested in a primary screen using WT/R232 STING protein to obtain a ‘fold-induction’ over baseline levels of protein activity.
In general, EC50 refers to the concentration that produces a half-maximal response. Take `O=C(NCc1cccc2ccccc12)c1ccc2c(c1)N(Cc1ccccc1F)C(=O)CS2` [Example 26, 4-(2-fluorobenzyl)-N-(naphthalen-1-ylmethyl)-3-oxo-3,4-dihydro-2H-benzo[b-1,4]thiazine-6-carboxamide]: the EC50 is greater than 10 µM.
`O=C(NCc1ccco1)c1ccc2c(c1)N(Cc1cccnc1)C(=O)CS2` [Example 27, N-(furan-2-ylmethyl)-3-oxo-4-(pyridin-3-ylmethyl)-3,4-dihydro-2H-benzo[b-1,4]thiazine-6-carboxamide]: the EC50 is greater than 10 µM.
For the compound `O=C(NCc1ccco1)c1ccc2c(c1)N(Cc1ccncc1)C(=O)CS2` [Example 28, N-(furan-2-ylmethyl)-3-oxo-4-(pyridin-4-ylmethyl)-3,4-dihydro-2H-benzo[b-1,4]thiazine-6-carboxamide], the EC50 was greater than 10 µM.
Regarding `CC(c1ccccc1)N1C(=O)CSc2ccc(C(=O)NCc3ccco3)cc21` (stereo not shown) [Example 29, N-(furan-2-ylmethyl)-3-oxo-4-(1-phenylethyl)-3,4-dihydro-2H-benzo[b-1,4]thiazine-6-carboxamide], the EC50 is greater than 10 µM.
As for `O=C(NCc1ccco1)c1ccc2c(c1)N(Cc1ccccc1C(F)(F)F)C(=O)CS2` [Example 30, N-(furan-2-ylmethyl)-3-oxo-4-(2-(trifluoro-methyl)benzyl)-3,4-dihydro-2H-benzo[b-1,4]thiazine-6-carboxamide], the figure is greater than 10 µM.
As to `O=C(NCc1ccc2ccccc2c1)c1ccc2c(c1)N(Cc1c(F)cccc1Cl)C(=O)CS2` [Example 32, 4-(2-chloro-6-fluorobenzyl)-N-(naphthalen-2-ylmethyl)-3-oxo-3,4-dihydro-2H-benzo[b-1,4]thiazine 6-carboxamide], the EC50 fell in the range of 1 to 10 µM.
On to `CN(Cc1ccco1)C(=O)c1ccc2c(c1)N(Cc1ccccc1)C(=O)CS2` [Example 33, 4-benzyl-N-(furan-2-ylmethyl)-N-methyl-3-oxo-3,4-dihydro-2H-benzo[b][1,4] thiazine-6-carboxamide], for which the EC50 is greater than 10 µM.
Regarding `O=C(NCC1CCCC1)c1ccc2c(c1)N(Cc1c(F)cccc1Cl)C(=O)CS2` [Example 35, 4-(2-chloro-6-fluorobenzyl)-N-(cyclopentyl-methyl)-3-oxo-3,4-dihydro-2H-benzo[b][1,4] thiazine-6-carboxamide], the EC50 is greater than 10 µM.
In the case of `Cc1ccc(CNC(=O)c2ccc3c(c2)N(Cc2c(F)cccc2Cl)C(=O)CS3)cn1` [Example 36, 4-(2-chloro-6-fluorobenzyl)-N-((6-methyl-pyridin-3-yl)methyl)-3-oxo-3,4-dihydro-2H-benzo[b-1,4]thiazine-6-carboxamide], the EC50 is greater than 10 µM.
For the compound `O=C(NCc1cccc(F)c1)c1ccc2c(c1)N(Cc1c(F)cccc1Cl)C(=O)CS2` [Example 38, 4-(2-chloro-6-fluorobenzyl)-N-(3-fluorobenzyl)-3-oxo-3,4-dihydro-2H-benzo[b-1,4]thiazine-6-carboxamide], the EC50 lay within 1 to 10 µM.
Consider `N#CCC(CNC(=O)c1ccc2c(c1)N(Cc1c(F)cccc1Cl)C(=O)CS2)c1ccccc1` (stereo not shown) [Example 41, 4-(2-chloro-6-fluorobenzyl)-N-(3-cyano-2-phenylpropyl)-3-oxo-3,4-dihydro-2H-benzo[b-1,4]thiazine-6-carboxamide], for which the EC50 was greater than 10 µM.
As for `O=C(NC(c1ccccc1)c1ccccc1)c1ccc2c(c1)N(Cc1ccccc1F)C(=O)CS2` [Example 42, N-benzhydryl-4-(2-fluorobenzyl)-3-oxo-3,4-dihydro-2H-benzo[b][1,4] thiazine-6-carboxamide], the EC50 is greater than 10 µM.
`O=C(NCC(c1ccccc1)C1CCCCC1)c1ccc2c(c1)N(Cc1c(F)cccc1Cl)C(=O)CS2` (stereo not shown) [Example 43, 4-(2-chloro-6-fluorobenzyl)-N-(2-cyclohexyl-2-phenylethyl)-3-oxo-3,4-dihydro-2H-benzo[b][1,4] thiazine-6-carboxamide]: the EC50 was greater than 10 µM.
